From patent publication US7582638B2, “Pyrazole-isoquinoline urea derivatives as p38 kinase inhibitors” (Eli Lilly and Company, priority 2005, dated 2009)
pIC50: −log10 of the molar value. Where a name gives a salt, the structure may show the parent alone.

Tested on: pMAPKAPK2
Assay: Inhibition of p-MAPKAPK2 in vitro (anisomycin-stimulated RAW 264.7 cells, ELISA)
Format: cell-based, murine
Conditions: Mus musculus, RAW264.7, p-MAPKAPK2 in vitro, read-out: IC50
Procedure: RAW 264.7 cells (a murine monocytic/macrophage line ATCC) are seeded at a density of 50,000 cells/well in 96-well plates with RPMI-1640 medium plus 10% fetal bovine serum (FBS) and allowed to settle and adhere to the bottom of the well for 48 hours. After reaching confluence, cells are treated for 2 hours with 10 serial dilutions of different compounds. A control compound is always included. After 2 hours, anisomicin (100 ug/ml) is added and cells are incubated for 30 minutes at 37° C. under a 5% CO2 atmosphere. Then, cells are fixed and treated with hydrogen peroxide in order to remove endogenous peroxidase. Finally, plates are blocked with FBS, washed, and an ELISA assay is carried out by using an antiphospho-MAPKAPK2 (Thr 334, Cell Signalling, Cat # 3041) antibody and ahP-Conjugated Secondary Antibody. This reaction is detected by using FEMTO (Pierce) which is an enhanced chemiluminiscent substrate ahP that results in rapid kinetic light output and high signal intensity. The compound exemplified in Example 12 is tested essentially as described above and is found to inhibit the pMAPKAPK2 enzyme production with an IC50 of 7 nM.

| pIC50 | SMILES |
| --- | --- |
| 6.90 | Cc1ccc(-n2nc(C(C)(C)C)cc2NC(=O)Nc2cnc(OC3CCN(C(N)=O)CC3)c3ccccc23)cc1 [Example 23] |
| 7.60 | Cc1ccc(-n2nc(C3(C)CC3)cc2NC(=O)Nc2cnc(N3CCN(C(=O)c4c(F)cccc4F)CC3)c3ccccc23)cc1 [Example 3, 1-{1-[4-(2,6-Difluoro-benzoyl)-piperazin-1-yl]-isoquinolin-4-yl}-3-[5-(1-methyl-cyclopropyl)-2-p-tolyl-2H-pyrazol-3-yl]-urea] |
| 7.36 | Cc1ccc(-n2nc(C3(C)CC3)cc2NC(=O)Nc2cnc(N3CCN(C(=O)C4CC4)CC3)c3ccccc23)cc1 [Example 1, 1-[1-(4-Cyclopropanecarbonyl-piperazin-1-yl)-isoquinolin-4-yl]-3-[5-(1-methyl-cyclopropyl)-2-p-tolyl-2H-pyrazol-3-yl]-urea] |
| 7.00 | COC1(c2cc(NC(=O)Nc3cnc(OC4CCN(C(=O)C5(C)CC5)CC4)c4ccccc34)n(-c3ccc(C)cc3)n2)CC1 [Example 9, 1-[5-(1-Methoxy-cyclopropyl)-2-p-tolyl-2H-pyrazol-3-yl]-3-{1-[1-(1-methyl-cyclopropanecarbonyl)-piperidin-4-yloxy]-isoquinolin-4-yl}-urea mesylate] |
